# Assay results reported in the supplement of paper PMC10307832.
# Assays:
# Experiment in all cases: relative viability (nuclei count vs DMSO), 5 days (fraction); higher = more cells survive
# ChaGo-K-1 = test system: ChaGo-K-1
# In short: (§1)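 Relative viability was taken as the ratio of nuclei in treated wells to nuclei in vehicle wells. Lung cancer cell lines in 1536-well plates received compounds by pin tool one day after seeding, either one drug alone or a fixed anchor-drug dose plus five library-drug doses (not always all listed) in √10 steps. Nuclei were counted on 4× images after 5 days of treatment, and values are medians of duplicate plates.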
# EKVX = test system: EKVX
# In short: as §1
# EMC-BAC-2 = test system: EMC-BAC-2
# In short: as §1
# EPLC-272H = test system: EPLC-272H
# In short: as §1
# HCC-78 = test system: HCC-78
# In short: as §1
# HCC-827 = test system: HCC-827
# In short: as §1
# LCLC-103H = test system: LCLC-103H
# In short: as §1
# LK-2 = test system: LK-2
# In short: as §1
# LU99A = test system: LU99A
# In short: as §1
# NCI-H1563 = test system: NCI-H1563
# In short: as §1
# NCI-H1666 = test system: NCI-H1666
# In short: as §1
# NCI-H1975 = test system: NCI-H1975
# In short: as §1
# NCI-H2126 = test system: NCI-H2126
# In short: as §1
# NCI-H2342 = test system: NCI-H2342
# In short: as §1
# NCI-H23 = test system: NCI-H23
# In short: as §1
# NCI-H2405 = test system: NCI-H2405
# In short: as §1
# NCI-H322M = test system: NCI-H322M
# In short: as §1
# PC-14 = test system: PC-14
# In short: as §1
# RERF-LC-KJ = test system: RERF-LC-KJ
# In short: as §1
# SK-LU-1 = test system: SK-LU-1
# In short: as §1
# SW 1573 = test system: SW 1573
# In short: as §1
# SW 900 = test system: SW 900
# In short: as §1
structure (smiles),measurement,setting,value
CC(=O)O[C@@]12CO[C@@H]1C[C@H](O)[C@@]1(C)C(=O)[C@H](O)C3=C(C)[C@@H](OC(=O)[C@H](O)[C@@H](NC(=O)OC(C)(C)C)c4ccccc4)C[C@@](O)([C@@H](OC(=O)c4ccccc4)[C@H]21)C3(C)C [Docetaxel] + COc1cccc2cc(-c3nc([C@H]4CC[C@H](C(=O)O)CC4)n4ncnc(N)c34)[nH]c12 [OSI-027] (partner 0.5 µM),relative viability,ChaGo-K-1; first compound 0.0002 µM,0.554
same,relative viability,ChaGo-K-1; first compound 0.000632 µM,0.459
same,relative viability,ChaGo-K-1; first compound 0.002 µM,0.301
same,relative viability,ChaGo-K-1; first compound 0.006325 µM,0.23
same,relative viability,ChaGo-K-1; first compound 0.02 µM,0.129
same,relative viability,EKVX; first compound 0.0002 µM,0.672
same,relative viability,EKVX; first compound 0.000632 µM,0.607
same,relative viability,EKVX; first compound 0.002 µM,0.35
same,relative viability,EKVX; first compound 0.006325 µM,0.272
same,relative viability,EKVX; first compound 0.02 µM,0.128
same,relative viability,EMC-BAC-2; first compound 0.0002 µM,0.424
same,relative viability,EMC-BAC-2; first compound 0.000632 µM,0.327
same,relative viability,EMC-BAC-2; first compound 0.002 µM,0.257
same,relative viability,EMC-BAC-2; first compound 0.006325 µM,0.25
same,relative viability,EMC-BAC-2; first compound 0.02 µM,0.172
same,relative viability,EPLC-272H; first compound 0.0002 µM,0.258
same,relative viability,EPLC-272H; first compound 0.000632 µM,0.235
same,relative viability,EPLC-272H; first compound 0.002 µM,0.228
same,relative viability,EPLC-272H; first compound 0.006325 µM,0.159
same,relative viability,EPLC-272H; first compound 0.02 µM,0.124
same,relative viability,HCC-78; first compound 0.0002 µM,0.321
same,relative viability,HCC-78; first compound 0.000632 µM,0.308
same,relative viability,HCC-78; first compound 0.002 µM,0.315
same,relative viability,HCC-78; first compound 0.006325 µM,0.278
same,relative viability,HCC-78; first compound 0.02 µM,0.284
same,relative viability,HCC-827; first compound 0.0002 µM,0.783
same,relative viability,HCC-827; first compound 0.000632 µM,0.848
same,relative viability,HCC-827; first compound 0.002 µM,0.52
same,relative viability,HCC-827; first compound 0.006325 µM,0.226
same,relative viability,HCC-827; first compound 0.02 µM,0.169
same,relative viability,LCLC-103H; first compound 0.0002 µM,0.394
same,relative viability,LCLC-103H; first compound 0.000632 µM,0.528
same,relative viability,LCLC-103H; first compound 0.002 µM,0.343
same,relative viability,LCLC-103H; first compound 0.006325 µM,0.414
same,relative viability,LCLC-103H; first compound 0.02 µM,0.264
same,relative viability,LK-2; first compound 0.0002 µM,0.208
same,relative viability,LK-2; first compound 0.000632 µM,0.186
same,relative viability,LK-2; first compound 0.002 µM,0.159
same,relative viability,LK-2; first compound 0.006325 µM,0.171
same,relative viability,LK-2; first compound 0.02 µM,0.153
same,relative viability,LU99A; first compound 0.0002 µM,0.293
same,relative viability,LU99A; first compound 0.002 µM,0.29
same,relative viability,LU99A; first compound 0.006325 µM,0.247
same,relative viability,LU99A; first compound 0.02 µM,0.202
same,relative viability,NCI-H1563; first compound 0.0002 µM,0.715
same,relative viability,NCI-H1563; first compound 0.000632 µM,0.79
same,relative viability,NCI-H1563; first compound 0.002 µM,0.738
same,relative viability,NCI-H1563; first compound 0.006325 µM,0.699
same,relative viability,NCI-H1563; first compound 0.02 µM,0.541
same,relative viability,NCI-H1666; first compound 0.0002 µM,0.739
same,relative viability,NCI-H1666; first compound 0.000632 µM,0.641
same,relative viability,NCI-H1666; first compound 0.002 µM,0.574
same,relative viability,NCI-H1666; first compound 0.006325 µM,0.491
same,relative viability,NCI-H1666; first compound 0.02 µM,0.322
same,relative viability,NCI-H1975; first compound 0.0002 µM,0.66
same,relative viability,NCI-H1975; first compound 0.000632 µM,0.479
same,relative viability,NCI-H1975; first compound 0.002 µM,0.217
same,relative viability,NCI-H1975; first compound 0.006325 µM,0.16
same,relative viability,NCI-H1975; first compound 0.02 µM,0.11
same,relative viability,NCI-H2126; first compound 0.0002 µM,0.742
same,relative viability,NCI-H2126; first compound 0.000632 µM,0.622
same,relative viability,NCI-H2126; first compound 0.002 µM,0.281
same,relative viability,NCI-H2126; first compound 0.006325 µM,0.297
same,relative viability,NCI-H2126; first compound 0.02 µM,0.221
same,relative viability,NCI-H2342; first compound 0.0002 µM,0.592
same,relative viability,NCI-H2342; first compound 0.000632 µM,0.609
same,relative viability,NCI-H2342; first compound 0.002 µM,0.502
same,relative viability,NCI-H2342; first compound 0.006325 µM,0.46
same,relative viability,NCI-H2342; first compound 0.02 µM,0.423
same,relative viability,NCI-H23; first compound 0.0002 µM,0.804
same,relative viability,NCI-H23; first compound 0.000632 µM,0.587
same,relative viability,NCI-H23; first compound 0.002 µM,0.238
same,relative viability,NCI-H23; first compound 0.006325 µM,0.168
same,relative viability,NCI-H23; first compound 0.02 µM,0.107
same,relative viability,NCI-H2405; first compound 0.0002 µM,0.666
same,relative viability,NCI-H2405; first compound 0.000632 µM,0.628
same,relative viability,NCI-H2405; first compound 0.002 µM,0.422
same,relative viability,NCI-H2405; first compound 0.006325 µM,0.333
same,relative viability,NCI-H2405; first compound 0.02 µM,0.255
same,relative viability,NCI-H322M; first compound 0.0002 µM,0.531
same,relative viability,NCI-H322M; first compound 0.000632 µM,0.532
same,relative viability,NCI-H322M; first compound 0.002 µM,0.471
same,relative viability,NCI-H322M; first compound 0.006325 µM,0.383
same,relative viability,NCI-H322M; first compound 0.02 µM,0.279
same,relative viability,PC-14; first compound 0.0002 µM,0.759
same,relative viability,PC-14; first compound 0.000632 µM,0.549
same,relative viability,PC-14; first compound 0.002 µM,0.121
same,relative viability,PC-14; first compound 0.006325 µM,0.0548
same,relative viability,PC-14; first compound 0.02 µM,0.0206
same,relative viability,RERF-LC-KJ; first compound 0.0002 µM,0.564
same,relative viability,RERF-LC-KJ; first compound 0.000632 µM,0.543
same,relative viability,RERF-LC-KJ; first compound 0.002 µM,0.297
same,relative viability,RERF-LC-KJ; first compound 0.006325 µM,0.248
same,relative viability,RERF-LC-KJ; first compound 0.02 µM,0.161
same,relative viability,SK-LU-1; first compound 0.0002 µM,0.353
same,relative viability,SK-LU-1; first compound 0.000632 µM,0.26
same,relative viability,SK-LU-1; first compound 0.002 µM,0.228
same,relative viability,SK-LU-1; first compound 0.006325 µM,0.197
same,relative viability,SK-LU-1; first compound 0.02 µM,0.144
same,relative viability,SW 1573; first compound 0.0002 µM,0.677
same,relative viability,SW 1573; first compound 0.000632 µM,0.326
same,relative viability,SW 1573; first compound 0.002 µM,0.199
same,relative viability,SW 1573; first compound 0.02 µM,0.124
same,relative viability,SW 900; first compound 0.0002 µM,0.298
same,relative viability,SW 900; first compound 0.000632 µM,0.245
same,relative viability,SW 900; first compound 0.002 µM,0.177
same,relative viability,SW 900; first compound 0.006325 µM,0.18
same,relative viability,SW 900; first compound 0.02 µM,0.109
